Reference: patent publication US10703784B2, “Antigens and epitopes derived from Mycobacterium tuberculosis” (priority 2011, dated 2020)
Where “and” joins values, the source holds several entries; their conditions need not be identical. Equal values may be shown once. Read-outs that look alike come from different tables or passages of the source.

What was measured:
[1] = test system: PBMCs depleted of CD4+ or CD8+ T cells; type: cell-based, human
[2] = test system: PBMCs from LTBI donors (IFN-γ production); type: cell-based, human; conditions: for SFC: individual MTB epitope peptide, one value per responding LTBI donor; for Resp. freq.: fraction of 28 LTBI donors responding to epitopes of the antigen; for Resp. freq. / Total SFC: ex vivo IFN-γ ELISPOT; for Total SFC: total spot-forming cells, LTBI donors
[3] = phenotype of the responding T cells per donor, n.d. = assay not done

AALPLLFFALAGQRI
T cell phenotype [1, 3]: CD4 (3×) and undetectable (2×)
SFC [2]: 81.7 and 36.7 and 33.3 and 143.3 and 45.0

MHVSFVMAYPEMLAA
T cell phenotype [1, 3]: CD4
SFC [2]: 165.0 and 290.0 and 181.7 and 283.3

INLIIHYVDRPGALG
T cell phenotype [1, 3]: undetectable
SFC [2]: 31.7

LGGLWTAVSPHLSPL
T cell phenotype [1, 3]: CD4
SFC [2]: 38.3 and 25.0

YASVEAANASPLQVA
T cell phenotype [1, 3]: undetectable
SFC [2]: 35.0

AVLVATNFFGINTIP
T cell phenotype [1]: CD4 and undetectable

ALSAEYAAVAQELSV
T cell phenotype [1, 3]: CD4
SFC [2]: 31.7 and 46.7

FGQNTGAIAAAEARY
T cell phenotype [1, 3]: CD4
SFC [2]: 108.3 and 276.7

WFINWYLPISQLFYN
T cell phenotype [1, 3]: undetectable
SFC [2]: 40.0

GAMVATNFFGINTIP
T cell phenotype [1]: CD4 and undetectable

B1: Rv3024c: MTB protein, novel CD4 T cell antigen; Information pathways, Island 2 (protein, listed as Mycobacterium tuberculosis)
chain: MKVLAAMSGGVDSSVAAARMVDAGHEVVGVHMALSTAPGTLRTGSRGCCSKEDAADARRVADVLGIPFYVWDFAEKFKEDVINDFVSSYARGETPNPCVRCNQQIKFAALSARAVALGFDTVATGHYARLSGGRLRRAVDRDKDQSYVLAVLTAQQLRHAAFPIGDTPKRQIRAEAARRGLAVANKPDSHDICFIPSGNTKAFLGERIGVRRGVVVDADGVVLASHDGVHGFTIGQRRGLGIAGPGPNGRPRYVTAIDADTATVHVGDVTDLDVQTLTGRAPVFTAGAAPSGPVDCVVQVRAHGETVSAVAELIGDALFVQLHAPLRGVARGQTLVLYRPDPAGDEVLGSATIAGASGLSTGGNPGA
Resp. freq. [2]: 32%
Total SFC [2]: 1630 SFC

B2: Rv0290: MTB protein, novel CD4 T cell antigen; Cell wall and cell processes, Island 1, Esx-3 (protein, listed as Mycobacterium tuberculosis)
chain: MSGTVMQIVRVAILADSRLTEMALPAELPLREILPAVQRLVVPSAQNGDGGQADSGAAVQLSLAPVGGQPFSLDASLDTVGVVDGDLLVLQPVPAGPAAPGIVEDIADAAMIFSTSRLKPWGIAHIQRGALAAVIAVALLATGLTVTYRVATGVLAGLLAVAGIAVASALAGLLITIRSPRSGIALSIAALVPIGAALALAVPGKFGPAQVLLGAAGVAAWSLIALMIPSAERERVVAFFTAAAVVGASVALAAGAQLLWQLPLLSIGCGLIVAALLVTIQAAQLSALWARFPLPVIPAPGDPTPSAPPLRLLEDLPRRVRVSDAHQSGFIAAAVLLSVLGSVAIAVRPEALSVVGWYLVAATAAAATLRARVWDSAACKAWLLAQPYLVAGVLLVFYTATGRYVAAFGAVLVLAVLMLAWVVVALNPGIASPESYSLPLRRLLGLVAAGLDVSLIPVMAYLVGLFAWVLNR
Resp. freq. [2]: 29%
Total SFC [2]: 1552 SFC

B3: Rv2490c: MTB protein, novel CD4 T cell antigen; PE/PPE (protein, listed as Mycobacterium tuberculosis)
chain: MQSMSFDPAVADIGSQVVNNAFQGLQAGAVAWVSLSSLLPAGAEEVSAWAVTAFTTAATGLLALNQAAQEELRKAGEVFTAIARMYSDADVRAAACLLEAIPRPGQTLARE
Resp. freq. [2]: 11%
Total SFC [2]: 64 SFC

B4: Rv1441c: MTB protein, novel CD4 T cell antigen; PE/PPE (protein, listed as Mycobacterium tuberculosis)
chain: MSNVMVVPGMLSAAAADVASIGAALSAANGAAAPTTAGVLAAGADEVSAAIASLFSGYARDYQALSAQMARFHQQFVQALTASVGSYAAAEAANASPLQALEQQVLAAINAPTQTLLGRPLIGNGADGLPGQNGGAGGLLWGNGGNGGAGDAAHPNGGNGGDAGMFGNGGAGGAGYSPAAGTGAAGGAGGAGGAGGWLSGNGGAGGNGGTGASGADGGGGLPPVPASPGGNGGGGDAGGAAGMFGTGGAGGTGGDGGAGGAGDSPNSGANGARGGDGGNGAAGGAGGRLFGNGGAGGNGGTAGQGGDGGTALGAGGIGGDGGTGGAGGTGGTAGIGGSSAGAGGAGGDGGAGGTGGGSSMIGGKGGTGGNGGVGGTGGASALTIGNGSSAGAGGAGGAGGTGGTGGYIESLDGKGQAGNGGNGGNGAAGGAGGGGTGAGGNGGAGGNGGDGGPSQGGGNPGFGGDGGTGGPGGVGVPDGIGGANGAQGKHG
Resp. freq. [2]: 11%
Total SFC [2]: 86 SFC
